Source: patent US10760110B2, “Antibiotic testing and screening system” (priority 2017, dated 2020)
In brackets after ≈: the same amount, converted by molar mass. Like-named read-outs stand apart in the source and are kept apart here.

How the values were obtained:
Conditions in all cases: Klebsiella pneumoniae
[1] = tested on: K. pneumoniae NVT1001 and its ΔompK35/36 and/or ΔramR mutants; assay: Etest MIC, OmpK35/36 loss and AcrAB-TolC overexpression (ΔramR) strains (Table 6); assay type: cell-based, Klebsiella pneumoniae
Summary of the method: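 Etest MICs against K. pneumoniae NVT1001 and its ΔompK35/36 and/or ΔramR mutants, rounded up to the next two-fold value. For NVT1001 carrying pACYC177-blaOXA-48, ceftazidime and cefotaxime MICs by CLSI broth microdilution, interpreted with CLSI 2017 breakpoints.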

[2] = tested on: K. pneumoniae NVT1001 strains with carbapenemase plasmids; assay: Etest MIC of β-lactams, OmpK35/36 loss, ΔramR and/or carbapenemase (Table 9); assay type: cell-based, Klebsiella pneumoniae
Summary of the method: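 Cloned resistance genes in pACYC177 or pACYC184 were electroporated into K. pneumoniae NVT1001. MICs were determined by Etest and rounded up to the next two-fold value. Ceftazidime and cefotaxime against the blaOXA-48 construct were also tested by CLSI broth microdilution, with breakpoints from CLSI 2017 (cephalothin CLSI 2015, moxifloxacin EUCAST 2017).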

[3] = tested on: K. pneumoniae NVT1001 ΔramRΔompK35/36 mutant and its revertants; assay: Etest MIC, ΔramRΔompK35/36 mutant and its revertants (Table 7); assay type: cell-based

For CC(C)(O/N=C(\C(=O)N[C@@H]1C(=O)N2C(C(=O)[O-])=C(C[n+]3ccccc3)CS[C@H]12)c1csc(N)n1)C(=O)O [Ceftazidime], the MIC ([1]; WT, NVT1001, read-out: MIC) was 0.25 µg/mL (≈ 0.457 µM), the MIC ([1]; Δ35, ΔompK35 mutant) was 0.5 µg/mL (≈ 0.915 µM) and the MIC ([1]; Δ35/36, ΔompK35/36 mutant) was 1 µg/mL (≈ 1.83 µM). The MIC ([1]; Δ36, ΔompK36 mutant) was 0.5 µg/mL (≈ 0.915 µM), the MIC ([1]; ΔramR mutant) was 2 µg/mL (≈ 3.66 µM) and the MIC ([1]; ΔramRΔ35, ΔramRΔompK35 mutant) was 2 µg/mL (≈ 3.66 µM). For the same compound, the MIC ([1]; ΔramRΔ35/36, ΔramRΔompK35/36 mutant) was 2 µg/mL (≈ 3.66 µM), the MIC ([1]; ΔramRΔ36, ΔramRΔompK36 mutant) was 2 µg/mL (≈ 3.66 µM) and the MIC ([2]; IMP-8 on pACYC177, WT (NVT1001), read-out: MIC) was > 256 µg/mL. The MIC ([2]; IMP-8 on pACYC177, Δ35 (ΔompK35 mutant)) was > 256 µg/mL, the MIC ([2]; IMP-8 on pACYC177, Δ35/36 (ΔompK35/36 mutant)) was > 256 µg/mL and the MIC ([2]; IMP-8 on pACYC177, Δ36 (ΔompK36 mutant)) was > 256 µg/mL. For the same compound, the MIC ([2]; IMP-8 on pACYC177, ΔramR mutant) was > 256 µg/mL, the MIC ([2]; IMP-8 on pACYC177, ΔramRΔ35 (ΔramRΔompK35 mutant)) was > 256 µg/mL and the MIC ([2]; IMP-8 on pACYC177, ΔramRΔ35/36 (ΔramRΔompK35/36 mutant)) was > 256 µg/mL. The MIC ([2]; IMP-8 on pACYC177, ΔramRΔ36 (ΔramRΔompK36 mutant)) was > 256 µg/mL, the MIC ([2]; KPC-2 on pACYC177, WT (NVT1001), read-out: MIC) was 16 µg/mL and the MIC ([2]; KPC-2 on pACYC177, Δ35 (ΔompK35 mutant)) was 64 µg/mL. The MIC ([2]; KPC-2 on pACYC177, Δ35/36 (ΔompK35/36 mutant)) was 256 µg/mL, the MIC ([2]; KPC-2 on pACYC177, Δ36 (ΔompK36 mutant)) was 32 µg/mL and the MIC ([2]; KPC-2 on pACYC177, ΔramR mutant) was 128 µg/mL. It also gave an MIC ([2]; KPC-2 on pACYC177, ΔramRΔ35 (ΔramRΔompK35 mutant)) of 128 µg/mL, an MIC ([2]; KPC-2 on pACYC177, ΔramRΔ35/36 (ΔramRΔompK35/36 mutant)) of 128 µg/mL and an MIC ([2]; KPC-2 on pACYC177, ΔramRΔ36 (ΔramRΔompK36 mutant)) of 128 µg/mL. For the same compound, the MIC ([2]; KPC-3 on pACYC177, WT (NVT1001), read-out: MIC) was 128 µg/mL, the MIC ([2]; KPC-3 on pACYC177, Δ35 (ΔompK35 mutant)) was > 256 µg/mL and the MIC ([2]; KPC-3 on pACYC177, Δ35/36 (ΔompK35/36 mutant)) was > 256 µg/mL. For the same compound, the MIC ([2]; KPC-3 on pACYC177, Δ36 (ΔompK36 mutant)) was 128 µg/mL, the MIC ([2]; KPC-3 on pACYC177, ΔramR mutant) was > 256 µg/mL and the MIC ([2]; KPC-3 on pACYC177, ΔramRΔ35 (ΔramRΔompK35 mutant)) was > 256 µg/mL. The MIC ([2]; KPC-3 on pACYC177, ΔramRΔ35/36 (ΔramRΔompK35/36 mutant)) was > 256 µg/mL, the MIC ([2]; KPC-3 on pACYC177, ΔramRΔ36 (ΔramRΔompK36 mutant)) was > 256 µg/mL and the MIC ([2]; NDM-1 on pACYC177, WT (NVT1001), read-out: MIC) was > 256 µg/mL. For the same compound, the MIC ([2]; NDM-1 on pACYC177, Δ35 (ΔompK35 mutant)) was > 256 µg/mL, the MIC ([2]; NDM-1 on pACYC177, Δ35/36 (ΔompK35/36 mutant)) was > 256 µg/mL and the MIC ([2]; NDM-1 on pACYC177, Δ36 (ΔompK36 mutant)) was > 256 µg/mL. The MIC ([2]; NDM-1 on pACYC177, ΔramR mutant) was > 256 µg/mL, the MIC ([2]; NDM-1 on pACYC177, ΔramRΔ35 (ΔramRΔompK35 mutant)) was > 256 µg/mL and the MIC ([2]; NDM-1 on pACYC177, ΔramRΔ35/36 (ΔramRΔompK35/36 mutant)) was > 256 µg/mL. For the same compound, the MIC ([2]; NDM-1 on pACYC177, ΔramRΔ36 (ΔramRΔompK36 mutant)) was > 256 µg/mL, the MIC ([2]; OXA-48 on pACYC177, WT (NVT1001), read-out: MIC) was 0.5 µg/mL and the MIC ([2]; OXA-48 on pACYC177, Δ35 (ΔompK35 mutant)) was 1 µg/mL. The MIC ([2]; OXA-48 on pACYC177, Δ35/36 (ΔompK35/36 mutant)) was 2 µg/mL, the MIC ([2]; OXA-48 on pACYC177, Δ36 (ΔompK36 mutant)) was 0.5 µg/mL and the MIC ([2]; OXA-48 on pACYC177, ΔramR mutant) was 2 µg/mL. For the same compound, the MIC ([2]; OXA-48 on pACYC177, ΔramRΔ35 (ΔramRΔompK35 mutant)) was 2 µg/mL, the MIC ([2]; OXA-48 on pACYC177, ΔramRΔ35/36 (ΔramRΔompK35/36 mutant)) was 2 µg/mL and the MIC ([2]; OXA-48 on pACYC177, ΔramRΔ36 (ΔramRΔompK36 mutant)) was 2 µg/mL. For the same compound, the MIC ([2]; VIM-1 on pACYC177, WT (NVT1001), read-out: MIC) was > 256 µg/mL, the MIC ([2]; VIM-1 on pACYC177, Δ35 (ΔompK35 mutant)) was > 256 µg/mL and the MIC ([2]; VIM-1 on pACYC177, Δ35/36 (ΔompK35/36 mutant)) was > 256 µg/mL. The MIC ([2]; VIM-1 on pACYC177, Δ36 (ΔompK36 mutant)) was > 256 µg/mL, the MIC ([2]; VIM-1 on pACYC177, ΔramR mutant) was > 256 µg/mL and the MIC ([2]; VIM-1 on pACYC177, ΔramRΔ35 (ΔramRΔompK35 mutant)) was > 256 µg/mL. For the same compound, the MIC ([2]; VIM-1 on pACYC177, ΔramRΔ35/36 (ΔramRΔompK35/36 mutant)) was > 256 µg/mL, the MIC ([2]; VIM-1 on pACYC177, ΔramRΔ36 (ΔramRΔompK36 mutant)) was > 256 µg/mL and the MIC ([2]; no supplemental plasmid, WT (NVT1001), read-out: MIC) was 0.25 µg/mL. The MIC ([2]; no supplemental plasmid, Δ35 (ΔompK35 mutant)) was 0.5 µg/mL, the MIC ([2]; no supplemental plasmid, Δ35/36 (ΔompK35/36 mutant)) was 1 µg/mL and the MIC ([2]; no supplemental plasmid, Δ36 (ΔompK36 mutant)) was 0.5 µg/mL. For the same compound, the MIC ([2]; no supplemental plasmid, ΔramR mutant) was 2 µg/mL, the MIC ([2]; no supplemental plasmid, ΔramRΔ35 (ΔramRΔompK35 mutant)) was 2 µg/mL and the MIC ([2]; no supplemental plasmid, ΔramRΔ35/36 (ΔramRΔompK35/36 mutant)) was 2 µg/mL. The MIC ([2]; no supplemental plasmid, ΔramRΔ36 (ΔramRΔompK36 mutant)) was 2 µg/mL, the MIC ([3]; ΔramRΔompK35/36::ompK35/36 revertant) was 2 µg/mL and the MIC ([3]; ΔramRΔompK35/36::ompK35 revertant) was 2 µg/mL. It also gave an MIC ([3]; ΔramRΔompK35/36::ompK36 revertant) of 2 µg/mL, an MIC ([3]; ΔramRΔompK35/36::ramR revertant) of 1 µg/mL and an MIC ([3]; ΔramRΔompK35/36::ramR::ompK35/36 revertant) of 0.25 µg/mL. For the same compound, the MIC ([3]; ΔramRΔompK35/36::ramR::ompK35 revertant) was 0.25 µg/mL, the MIC ([3]; ΔramRΔompK35/36::ramR::ompK36 revertant) was 1 µg/mL and the MIC ([3]; ΔramRΔompK35/36 mutant) was 2 µg/mL.
